Test results from patent US7473702B2, “Substituted gamma lactams as therapeutic agents” (Allergan, Inc., priority 2005, dated 2009).

Legend:
hDP = molecular target: T1, hDP (Homo sapiens, UniProt Q13258); test: Other receptors functional EC50, hDP; assay type: cell-based
T1 sequence (Q13258 1-359): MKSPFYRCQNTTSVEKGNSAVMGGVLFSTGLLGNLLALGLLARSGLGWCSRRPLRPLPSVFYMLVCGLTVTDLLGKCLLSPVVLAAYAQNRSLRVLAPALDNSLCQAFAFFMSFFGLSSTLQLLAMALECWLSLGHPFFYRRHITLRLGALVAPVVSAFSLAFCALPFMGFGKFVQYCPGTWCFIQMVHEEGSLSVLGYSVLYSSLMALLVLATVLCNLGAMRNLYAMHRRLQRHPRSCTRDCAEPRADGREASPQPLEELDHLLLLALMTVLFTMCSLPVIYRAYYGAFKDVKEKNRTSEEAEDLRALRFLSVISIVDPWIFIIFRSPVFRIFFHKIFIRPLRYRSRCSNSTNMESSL
Description: (§1) U.S. patent application Ser. No. 11/553,143, filed on Oct. 26, 2006, incorporated by reference herein, describes the methods used to obtain the in vitro data in the table below.

EP2 [1] = molecular target: T2, EP2 (Homo sapiens, UniProt P43116); test: EP2 binding Ki
T2 sequence (P43116 whole entry): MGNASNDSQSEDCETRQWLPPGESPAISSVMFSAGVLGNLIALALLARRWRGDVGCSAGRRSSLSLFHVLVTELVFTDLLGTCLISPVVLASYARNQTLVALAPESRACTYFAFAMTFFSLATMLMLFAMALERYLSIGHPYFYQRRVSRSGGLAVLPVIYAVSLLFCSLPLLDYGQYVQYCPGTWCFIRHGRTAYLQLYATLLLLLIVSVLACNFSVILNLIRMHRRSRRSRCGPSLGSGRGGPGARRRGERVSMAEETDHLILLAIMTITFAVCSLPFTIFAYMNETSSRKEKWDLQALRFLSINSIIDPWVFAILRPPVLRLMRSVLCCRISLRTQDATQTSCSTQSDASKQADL
Description: as §1

hEP3A = molecular target: T3, hEP3A (Homo sapiens, UniProt P43115); test: Other receptors functional EC50, hEP3A; assay type: cell-based
T3 sequence (P43115 1-390): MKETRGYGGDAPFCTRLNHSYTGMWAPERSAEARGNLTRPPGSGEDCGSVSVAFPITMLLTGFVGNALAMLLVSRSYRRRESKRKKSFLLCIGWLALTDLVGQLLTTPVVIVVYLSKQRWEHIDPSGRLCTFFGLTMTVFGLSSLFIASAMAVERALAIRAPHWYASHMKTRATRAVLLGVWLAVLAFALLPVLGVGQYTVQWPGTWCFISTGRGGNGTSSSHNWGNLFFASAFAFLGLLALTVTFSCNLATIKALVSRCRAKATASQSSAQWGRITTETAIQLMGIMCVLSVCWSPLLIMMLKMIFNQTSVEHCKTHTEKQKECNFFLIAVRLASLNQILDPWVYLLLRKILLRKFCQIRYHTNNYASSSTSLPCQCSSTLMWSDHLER
Description: as §1

EP2 [2] = molecular target: T2, EP2; test: EP2 cAMP EC50; assay type: cell-based
Description: as §1

EP2 [3] = molecular target: T2, EP2; test: EP2 flipr EC50; assay type: cell-based
Description: as §1

hTP = molecular target: T4, hTP (Homo sapiens, UniProt P21731); test: Other receptors functional EC50, hTP; assay type: cell-based
T4 sequence (P21731 1-343): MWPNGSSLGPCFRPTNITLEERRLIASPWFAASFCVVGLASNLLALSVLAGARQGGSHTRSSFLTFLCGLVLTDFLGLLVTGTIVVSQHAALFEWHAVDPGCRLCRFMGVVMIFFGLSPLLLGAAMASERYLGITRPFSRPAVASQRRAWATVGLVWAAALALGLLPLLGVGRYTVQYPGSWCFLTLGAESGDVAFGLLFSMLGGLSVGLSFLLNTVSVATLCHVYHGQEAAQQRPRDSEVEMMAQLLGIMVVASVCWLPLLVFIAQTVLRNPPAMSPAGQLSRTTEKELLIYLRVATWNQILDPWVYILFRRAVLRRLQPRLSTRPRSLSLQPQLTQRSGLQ
Description: as §1

Structure (SMILES) | EC50 (hDP) | Ki (EP2 [1]) | EC50 (hEP3A) | EC50 (EP2 [2]) | EC50 (EP2 [3]) | EC50 (hTP)
CCCCC[C@H](O)c1ccc(N2C(=O)CC[C@@H]2C/C=C/c2ccc(C(=O)O)s2)cc1 | > 10000 nM | 1420 nM | 2070 nM | 73 nM | – | –
CCCCC[C@H](O)c1ccc(N2C(=O)CC[C@@H]2/C=C\Cc2ccc(C(=O)O)s2)cc1 | > 10000 nM | 824 nM | – | 19 nM | 23 nM | –
CCCCCC(O)c1ccc(N2C(=O)CC[C@@H]2C/C=C\c2nc(C(=O)O)cs2)cc1 (stereo partly drawn) | 1850 nM | 43 nM | 43 nM | 0.75 nM | 17 nM | –
CCCCCC(O)c1ccc(N2C(=O)CC[C@@H]2C/C=C/c2nc(C(=O)O)cs2)cc1 (stereo partly drawn) | > 10000 nM | 2180 nM | 2980 nM | 24 nM | – | > 10000 nM
